# Test results reported in patent publication US20110136858A1, “Preferred Combination Therapy” (priority 2009, published 2011).
# Key:
# TGF-beta1 = assay: Functional assay for TGF-beta Production Stimulator activity: suppression of smooth muscle cell proliferation reversible by neutralising anti-TGF-beta1 antibody; format: cell-based, rat; conditions: for EC50: rat aortic smooth muscle cells in culture, 72 hrs, suppression of proliferation reversible by neutralising antibodies to TGF-beta1, from dose-response curves of FIG. 2, read-out: ED50 for the TGF-beta Production Stimulator activity
# Text: In order compare Droloxifene with other triphenylethylenes, we have exploited a functional assay for TGF-beta1 activity. Alternative approaches are less suitable for various reasons: it is not possible to directly measure TGF-beta protein production by cultured cells in response to triphenylethylenes because the TGF-beta that is produced remains associated with the cells or the extracellular matrix and is therefore not available for assay (for example, by ELISA) in the conditioned medium from the cultured cells. […] The specificity of such an assay is achieved by comparing the rate of proliferation of the smooth muscle cells in the presence or absence of a validated, highly specific neutralising antibody against TGF-beta (or TGF-beta1, as required).
# The cells were prepared by enzyme dispersion of isolated rat aortae exactly as described previously (Grainger et al (1993) Biochem. J. 294(1):109-12 and the references therein). The cells were cultured (37° C.; 5% CO2) in DMEM+10% foetal calf serum (FCS), and subcultured every 4 days at 1:2 dilution, using 0.02% trypsin/EDTA (Gibco). Experiments were performed between the sixth and twentieth subculture.
# For the experiments, the cells were subcultured into 12-well cluster plates, and allowed to grow for 24 hrs. […] The cells were then incubated for 72 hrs. All treatment conditions were established in triplicate. One triplicate of cells was counted (see below) at 0 h. All other wells were counted at 72 hrs.
# The number of cells in each well was determined as follows: the well was washed three times with serum-free DMEM, aspirated and then incubated with 100 μl of trypsin/EDTA solution (Gibco) for 2 minutes at 37° C. Complete release of the cell monolayer was confirmed microscopically. The cell density in portion of this suspension was determined by counting using an Improved Neubauer hameocytometer, ensuring the suspension was uniform by gentle pipetting, prior to sampling. The cell density was converted to the absolute number of cells present in the well by multiplying the number of cells per μl by the total volume of suspension (100 μl). For each condition, the mean number of cells at the end of the experiment was calculated by meaning the number of cells in each well of triplicate.
# The extent of proliferation of the cell culture under each condition was determined by subtracting the mean number of cells at time Oh from the mean number of cells under that condition at time 72 h. The amount of TGF-beta1 activity under each condition was determined by subtracting the inhibition of growth achieved in the presence of neutralising anti-TGF-beta1 antibody (AB-101-NA; R&D Systems) from the inhibition of growth achieved in the absence of antibody.
# [1] = Effect of co-administration of triphenylethylenes on clopidogrel metabolism in vivo (CLP*-acetamide by LC-MS); design: species or system Sprague-Dawley rats; conditions: rats, 0.1 to 10 mg/kg analog with 10 mg/kg clopidogrel
# Experimental: Adult male Sprague-Dawley rats are dosed with various triphenylethylenes at different doses from 0.1 mg/kg to 10 mg/kg (spanning the likely doses such compounds would be used in man), or with vehicle only, and simultaneously dosed with 10 mg/kg clopidogrel, both by oral gavage. Blood samples are drawn through an in-dwelling jugular catheter at 0.5, 1, 2, 4, 8 and 24 hrs post-dose, and serum is prepared by conventional methods well known in the art.
# The level of CLP*, the active metabolite of clopidogrel is then determined in each blood sample by LC-MS by collecting the blood samples in tubes containing the thiol alkylating agent iodeoacetamide. Iodoacetamide reacts with CLP* to generate a stable product which can be detected by LC-MS using standard methodology well known in the art. An authentic sample of the acetamide adduct of CLP* is used to quantify the level of CLP*-acetamide in the sample. […] The concentration of CLP*-acetamide adduct can therefore be assumed to be proportional to the concentration of CLP*. The pharmacokinetics of CLP*-acetamide are then compared under the different conditions, using standard pharmacokinetics models implemented with WinNonLin.
# [2] = chronic Tamoxifen users; translated from the relative risk; cited from earlier work
SMILES,EC50 (TGF-beta1),effect on clopidogrel metabolism (in words) [1],reduction in risk of death from myocardial infarction [2],activity as Production Stimulator for TGF-beta1 (in words) (TGF-beta1; rat aortic smooth muscle cells)
"CC/C(=C(/c1ccc(OCCN(C)C)cc1)c1cccc(O)c1)c1ccccc1 [Droloxifene, (E)-1-(4′-(2-dimethylaminoethoxy)phenyl)-1-(3-hydroxyphenyl)-2-phenylbut-1-ene]",3 µM,no effect,,
CC/C(=C(\c1ccccc1)c1ccc(OCCN(C)C)cc1)c1ccccc1 [Tamoxifen],,,33%,
O=C(c1ccc(OCCN2CCCCC2)cc1)c1c(-c2ccc(O)cc2)sc2cc(O)ccc12 [Raloxifene],> 100 µM,,,does not have measurable activity
CC/C(=C(\c1ccc(I)cc1)c1ccc(OCCN2CCCC2)cc1)c1ccccc1 [Idoxifene],5 µM,,,
CN(C)CCOc1ccc(/C(=C(/CCCl)c2ccccc2)c2ccccc2)cc1 [Toremifene],10 µM,,,
